The values that follow are results of earlier work, collected in patent US20120196858A1, “METHOD OF PROMOTING APOPTOSIS AND INHIBITING METASTASIS” (Poniard Pharmaceuticals ,Inc., priority 2009, published 2012).

The data set relates to lung carcinoma xenografts. The following applies: previous studies; cited from earlier work.

Turning to `CN(c1ncccc1CNc1nc(Nc2ccc3c(c2)CC(=O)N3)ncc1C(F)(F)F)S(C)(=O)=O` [PF-562,271], the tumor microvessel density entry is “reduced tumor microvessel density”.
